The subject of test [1] is cultured human mast cells (CHMC). The test is described as follows: CHMC low cell density IgE activation: tryptase assay. The test is classed as cell-based. Particulars: IgE activation. Put shortly: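 Low-density CHMC, 1000-1500 cells/well in MT; 1 hr 37 °C; anti-IgE challenge 30 min 37 °C; supernatant tryptase via fluorogenic substrate, 30 min RT.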
Test [2] shares this test system. The test is described as follows: CHMC low cell density ionomycin activation: tryptase assay. The test is classed as cell-based. Particulars: 3 pt, read-out: LD Tryptase, CHMC, Iono, 3 pt.
Setting [3] is: Homo sapiens, Mast cell, low cell density CHMC, tryptase, 3 pt, read-out: LD Tryptase, CHMC, IgE, 3 pt.
Where [4] appears, read: Homo sapiens, Mast cell, low cell density CHMC, tryptase.
Where [5] appears, read: Homo sapiens, Mast cell, low cell density CHMC, tryptase, 8 pt, read-out: LD Tryptase, CHMC, IgE, 8 pt.
[6] abbreviates: low cell density CHMC, tryptase, 3 pt, read-out: LD Tryptase, CHMC, IgE, 3 pt.
Setting [7] is: low cell density CHMC, tryptase.
The mark [8] stands for this setting: Homo sapiens, Mast cell, low cell density, 3 pt, read-out: LD Tryptase, CHMC, IgE, 3 pt.
The mark [9] stands for this setting: Homo sapiens, Mast cell, low cell density.
Setting [10] is: low cell density, 3 pt, read-out: LD Tryptase, CHMC, IgE, 3 pt.
[11] abbreviates: Homo sapiens, Mast cell, low cell density, 8 pt, read-out: LD Tryptase, CHMC, IgE, 8 pt.

SMILES strings stand for the structures.

For the molecule `COc1cc(Nc2nc(Nc3ccc(N4CCN(C(C)=O)CC4)cc3)ncc2F)cc(OC)c1` [Compound 437], the IC50 in test [1] (setting [3]) is below 10 µM; in test [2] (setting [4]), above 10 µM.

With `COc1ccc(N(C)c2nc(Nc3cccc(-c4cnco4)c3)ncc2F)cc1OC` [Compound 438, N4-(3,4-Dimethoxyphenyl)-5-fluoro-N4-methyl-N2-[3-(oxazol-5-yl)phenyl]-2,4-pyrimidinediamine], the IC50 in test [1] (setting [3]) was below 10 µM; in test [1] (setting [5]), below 10 µM; in test [2] (setting [4]), above 10 µM.

Regarding `COc1ccc(N(C)c2nc(Nc3ccc(-c4ncco4)cc3)ncc2F)cc1OC` [Compound 440, N4-(3,4-Dimethoxyphenyl)-5-fluoro-N4-methyl-N2-[4-(oxazol-2-yl)phenyl]-2,4-pyrimidinediamine], the IC50 in test [1] (setting [3]) was below 10 µM; in test [2] (setting [4]), above 10 µM.

On to `COC(=O)CN(c1ccc2c(c1)OCCO2)c1nc(Nc2cc(C)cc(C)c2)ncc1F` [Compound 441], for which the IC50 in test [1] (setting [3]) is below 10 µM; in test [2] (setting [4]), above 10 µM.

Take `COC(=O)CN(c1ccc2c(c1)OCCO2)c1nc(Nc2cc(OC)cc(OC)c2)ncc1F` [Compound 442]: the IC50 was below 10 µM in test [1] (setting [3]) and above 10 µM in test [2] (setting [4]).

On to `COC(=O)CN(c1ccc2c(c1)OCCO2)c1nc(Nc2cccc(-c3cnco3)c2)ncc1F` [Compound 443], for which the results for the IC50 in test [1] (setting [3]) and in test [2] (setting [4]) were below 10 µM and above 10 µM, respectively.

`COC(=O)CN(c1ccc2c(c1)OCCO2)c1nc(Nc2cccc(-c3ncco3)c2)ncc1F` [Compound 444]: the values for the IC50 in test [1] (setting [3]) and in test [2] (setting [4]) were below 10 µM and above 10 µM, respectively.

Turning to `COC(=O)CN(c1ccc2c(c1)OCCO2)c1nc(Nc2ccc(-c3ncco3)cc2)ncc1F` [Compound 445], the IC50 in test [1] (setting [3]) was below 10 µM; in test [2] (setting [4]) it was above 10 µM.

Regarding `CNC(=O)COc1cccc(Nc2ncc(F)c(N(CC(=O)OC)c3ccc4c(c3)OCCO4)n2)c1` [Compound 446, N4-(3,4-Ethylenedioxyphenyl)-5-fluoro-N4-(methoxycarbonylmethyl)-N2-[3-(N-methylamino)carbonylmethyleneoxyphenyl]-2,4-pyrimidinediamine], the IC50 in test [1] (setting [6]) was below 10 µM; in test [2] (setting [7]) it was above 10 µM.

On to `CNC(=O)COc1cccc(Nc2ncc(F)c(N(C)c3ccc(OC)c(OC)c3)n2)c1` [Compound 447, N4-(3,4-Dimethoxyphenyl)-5-fluoro-N4-methyl-N2-[3-(N-methylamino)carbonylmethyleneoxyphenyl]-2,4-pyrimidinediamine], for which the IC50 in test [1] (setting [6]) was below 10 µM; in test [2] (setting [7]), above 10 µM.

With `CNC(=O)c1cc(Nc2ncc(F)c(Nc3ccc4c(c3)OCCO4)n2)ccc1Cl` [Compound 448], the IC50 in test [1] (setting [3]) was below 10 µM; in test [1] (setting [5]) it was below 10 µM; in test [2] (setting [4]), above 10 µM.

`CNC(=O)c1cc(Nc2ncc(F)c(Nc3ccc(OC)c(OC)c3)n2)ccc1Cl` [Compound 449, N2-[4-Chloro-3-(N-methylamino)carbonylphenyl]-N4-(3,4-dimethoxyphenyl)-5-fluoro-2,4-pyrimidinediamine]: the figures for the IC50 in test [1] (setting [3]) and in test [2] (setting [4]) were below 10 µM and above 10 µM, respectively.

For `CNC(=O)c1cc(Nc2ncc(F)c(Nc3cc(OC)cc(OC)c3)n2)ccc1Cl` [Compound 450], the IC50 in test [1] (setting [3]) is below 10 µM; in test [2] (setting [4]), above 10 µM.

Take `CNC(=O)c1cc(Nc2ncc(F)c(Nc3ccc(OC)c(Cl)c3)n2)ccc1Cl` [Compound 451, N4-(3-Chloro-4-methoxyphenyl)-N2-[4-chloro-3-(N-methylamino)carbonylphenyl]-5-fluoro-2,4-pyrimidinediamine]: the IC50 in test [1] (setting [8]) and in test [2] (setting [9]) was below 10 µM throughout.

`CCOC(=O)C(C)(C)Oc1ccc(Nc2nc(Nc3ccc(Cl)c(C(=O)NC)c3)ncc2F)cc1Cl` [Compound 452, N4-[3-Chloro-4-(ethoxycarbonyl-1,1-dimethylmethyleneoxy)phenyl]-N2-[4-chloro-3-(N-methylamino)carbonylphenyl]-5-fluoro-2,4-pyrimidinediamine]: the IC50 in test [1] (setting [10]) and in test [2] (low cell density) was below 10 µM each time.

With `CNC(=O)c1cc(Nc2ncc(F)c(N(C)c3ccc4c(c3)OCCO4)n2)ccc1Cl` [Compound 453, N2-[4-Chloro-3-(N-methylamino)carbonylphenyl]-N4-(3,4-ethylenedioxyphenyl)-5-fluoro-N4-methyl-4-pyrimidinediamine], the IC50 in test [1] (setting [10]) is below 10 µM; in test [2] (low cell density), above 10 µM.

In the case of `CNC(=O)c1cc(Nc2ncc(F)c(N(C)c3ccc(OC)c(OC)c3)n2)ccc1Cl` [Compound 454, N2-[4-Chloro-3-(N-methylamino)carbonylphenyl]-N4-(3,4-dimethoxyphenyl)-5-fluoro-N4-methyl-4-pyrimidinediamine], the IC50 is below 10 µM in test [1] (setting [10]) and above 10 µM in test [2] (low cell density).

Consider `CNC(=O)c1cc(Nc2ncc(F)c(Nc3ccc4c(c3)NC(=O)C(C)(C)O4)n2)ccc1Cl` [Compound 455], for which the IC50 in test [1] (setting [8]) was below 10 µM; in test [1] (setting [11]) it was below 10 µM; in test [2] (setting [9]) it was above 10 µM.

With `CNC(=O)c1ccc(Nc2ncc(F)c(Nc3ccc4c(c3)NC(=O)C(C)(C)O4)n2)cc1Cl` [Compound 456, N2-[3-Chloro-4-(N-methylamino)carbonylphenyl]-N4-(2,2-dimethyl-3-oxo-4H-benz[1,4]oxazin-6-yl)-5-fluoro-2,4-pyrimidinediamine], the IC50 in test [1] (setting [8]), in test [1] (setting [11]) and in test [2] (setting [9]) was below 10 µM throughout.

For the molecule `COc1cc(OC)cc(N(C)c2nc(Nc3ccc(OC)nc3OC)ncc2F)c1` [Compound 457], the IC50 in test [1] (setting [8]), in test [1] (setting [11]) and in test [2] (setting [9]) was below 10 µM throughout.

Take `COc1ccc(Nc2ncc(F)c(N(C)c3ccc4c(c3)OCCO4)n2)c(OC)n1` [Compound 458]: the IC50 in test [1] (setting [8]) and in test [2] (setting [9]) was above 10 µM each time.

Take `COc1cc(Nc2nc(Nc3ccc(OC)nc3OC)ncc2F)cc(OC)c1` [Compound 459]: the IC50 in test [1] (setting [8]) was below 10 µM; in test [2] (setting [9]) it was above 10 µM.

For the molecule `COc1ccc(Nc2ncc(F)c(Nc3ccc4c(c3)OCCO4)n2)c(OC)n1` [Compound 460], the IC50 in test [1] (setting [8]) was below 10 µM; in test [2] (setting [9]) it was above 10 µM.

Take `CNc1ncc(F)c(N(C)c2ccc3c(c2)OCCO3)n1` [Compound 461]: the IC50 in test [1] (setting [8]) and in test [2] (setting [9]) was above 10 µM throughout.

As to `CN(C)c1ncc(F)c(N(C)c2ccc3c(c2)OCCO3)n1` [Compound 462, N2-Dimethyl-N4-(3,4-ethylenedioxyphenyl)-5-fluoro-N4-methyl-2,4-pyrimidinediamine], the IC50 in test [1] (setting [10]) and in test [2] (low cell density) was above 10 µM in each case.

In the case of `CNC(=O)c1ccc(Nc2ncc(F)c(Nc3ccc4c(c3)OCCO4)n2)cc1Cl` [Compound 463], the IC50 in test [1] (setting [8]) was below 10 µM; in test [1] (setting [11]) it was below 10 µM; in test [2] (setting [9]), above 10 µM.

As to `CNC(=O)c1ccc(Nc2ncc(F)c(Nc3ccc(OC)c(OC)c3)n2)cc1Cl` [Compound 464, N2-[3-Chloro-4-(N-methylamino)carbonylphenyl]-N4-(3,4-dimethoxyphenyl)-5-fluoro-2,4-pyrimidinediamine], the figures for the IC50 in test [1] (setting [8]) and in test [2] (setting [9]) were below 10 µM and above 10 µM, respectively.

Consider `CNC(=O)c1ccc(Nc2ncc(F)c(Nc3cc(OC)cc(OC)c3)n2)cc1Cl` [Compound 465], for which the IC50 in test [1] (setting [8]) is below 10 µM; in test [2] (setting [9]) it was above 10 µM.

Consider `CNC(=O)c1ccc(Nc2ncc(F)c(Nc3ccc(OC)c(Cl)c3)n2)cc1Cl` [Compound 466], for which the IC50 in test [1] (setting [8]) was below 10 µM; in test [1] (setting [11]), below 10 µM; in test [2] (setting [9]) it was above 10 µM.

As for `CCOC(=O)C(C)(C)Oc1ccc(Nc2nc(Nc3ccc(C(=O)NC)c(Cl)c3)ncc2F)cc1Cl` [Compound 467, N4-[3-Chloro-4-(ethoxycarbonyl-1,1-dimethylmethyleneoxy)phenyl]-N2-[3-chloro-4-(N-methylamino)carbonylphenyl]-5-fluoro-2,4-pyrimidinediamine], the IC50 in test [1] (setting [10]) is below 10 µM; in test [1] (low cell density, 8 pt, read-out: LD Tryptase, CHMC, IgE, 8 pt), below 10 µM; in test [2] (low cell density), below 10 µM.

With `CNC(=O)c1ccc(Nc2ncc(F)c(Nc3cccc(O)c3)n2)cc1Cl` [Compound 468], the IC50 is below 10 µM in test [1] (setting [8]), below 10 µM in test [1] (setting [11]) and above 10 µM in test [2] (setting [9]).

Consider `CN(c1ccc2c(c1)OCCO2)c1nc(NCCO)ncc1F` [Compound 469, N4-(3,4-Ethylenedioxyphenyl)-5-fluoro-N2-(2-hydroxyethyl)-N4-methyl-2,4-pyrimidinediamine], for which the IC50 in test [1] (setting [8]) and in test [2] (setting [9]) was above 10 µM throughout.

`CCOC(=O)C(C)(C)Oc1ccc(N(C)c2nc(Cl)ncc2F)cc1Cl` [Compound 470, 2-Chloro-N4-[3-chloro-4-(ethoxycarbonyl-1,1-dimethylmethyleneoxy)phenyl]-5-fluoro-N4-methyl-4-pyrimidineamine]: the IC50 in test [1] (setting [10]) was above 10 µM; in test [2] (low cell density), below 10 µM.

As for `CC(C)Nc1ncc(F)c(N(C)c2ccc3c(c2)OCCO3)n1` [Compound 471, N4-(3,4-Ethylenedioxyphenyl)-5-fluoro-N2-isopropyl-N4-methyl-2,4-pyrimidinediamine], the IC50 in test [1] (setting [8]) and in test [2] (setting [9]) was above 10 µM throughout.

`COc1ccc(Nc2ncc(F)c(Nc3cccc(O)c3)n2)c(OC)n1` [Compound 472]: the IC50 in test [1] (setting [8]) was below 10 µM; in test [2] (setting [9]) it was above 10 µM.

Values taken from patent US20220073536A1 (Rigel Pharmaceuticals, Inc., priority 2003, published 2022).
